The source of these data is PubChem BioAssay (NCI).

The structures appear in SMILES notation.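 The compound was tested at five concentrations on cells cultured in 96-well plates, with a 48-hour exposure period. Definition used: TGI = concentration required for complete inhibition of growth.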

Some test systems named below: SF-295 CNS; OVCAR-5 ovarian; SF-539 CNS; SK-MEL-28 melanoma; NCI-H23 lung; U251 CNS; HT29 colon; HOP-92 NSCLC; UO-31 renal; SN12C renal; T-47D breast; NCI-H460 lung; HL-60(TB) leukemia; ACHN renal; NCI-H522 lung; CCRF-CEM leukemia; IGROV1 ovarian; RXF 393 renal; UACC-257 melanoma.
Common to all, as to assay: NCI anticancer screen, dose series, 48 h

In the case of `c1ccc(N/N=C2\CC(c3ccccc3)Oc3ccccc32)cc1` (stereo not drawn), the TGI in the test on SF-295 CNS, in the test with OVCAR-5 ovarian, with SF-539 CNS, in the test on SK-MEL-28 melanoma, with NCI-H23 lung and in the test with U251 CNS was more than 100 µM each time. The TGI in the test on HT29 colon, in the test on HOP-92 NSCLC, in the test with UO-31 renal, with SN12C renal, in the test on T-47D breast and in the test on NCI-H460 lung was more than 100 µM each time. Also, the TGI was more than 100 µM in the test on HL-60(TB) leukemia; more than 100 µM with ACHN renal; 53.6 µM in the test with NCI-H522 lung; more than 100 µM with CCRF-CEM leukemia; more than 100 µM in the test with IGROV1 ovarian; 75.3 µM in the test with RXF 393 renal. In the test on UACC-257 melanoma, this compound yielded a TGI of more than 100 µM.

Regarding `O=C(O)CN1CCNCCN(CC(=O)O)CC1`, the TGI in the test with SF-295 CNS was more than 100 µM; in the test with OVCAR-5 ovarian it was more than 100 µM; in the test on SF-539 CNS, more than 100 µM; with SK-MEL-28 melanoma, more than 100 µM; in the test on NCI-H23 lung it was 20.7 µM; with U251 CNS, more than 100 µM. Also, the TGI in the test on HT29 colon is more than 21.4 µM; in the test on HOP-92 NSCLC, more than 100 µM; with UO-31 renal, more than 100 µM; in the test on SN12C renal it was more than 100 µM; in the test on T-47D breast, more than 100 µM; with NCI-H460 lung, more than 64.4 µM. The TGI in the test on HL-60(TB) leukemia was more than 28.6 µM; with ACHN renal, more than 100 µM; in the test on NCI-H522 lung, 30.7 µM; in the test on CCRF-CEM leukemia, more than 100 µM; with IGROV1 ovarian, more than 100 µM; in the test with RXF 393 renal, more than 100 µM. The TGI in the test with UACC-257 melanoma was more than 100 µM.

Consider `COC(=O)c1ccccc1C1CN=NC12Cc1c(C)cc(C)cc1C2=O` (stereo not drawn), for which the TGI in the test with SF-295 CNS, with OVCAR-5 ovarian, with SF-539 CNS, in the test on SK-MEL-28 melanoma, in the test with NCI-H23 lung and in the test on U251 CNS was more than 100 µM throughout. The TGI in the test with HT29 colon, with HOP-92 NSCLC, in the test on UO-31 renal, with SN12C renal, with T-47D breast and in the test on NCI-H460 lung was more than 100 µM throughout. Also, the TGI with HL-60(TB) leukemia, with ACHN renal, in the test with NCI-H522 lung, with CCRF-CEM leukemia, in the test on IGROV1 ovarian and in the test on RXF 393 renal was more than 100 µM throughout. In the test with UACC-257 melanoma, this compound displayed a TGI of more than 100 µM.

Turning to `CC(=O)N1NC(c2ccccc2)=CC(=O)/C1=C/C(=O)c1ccccc1`, the TGI with SF-295 CNS, in the test on OVCAR-5 ovarian, in the test with SF-539 CNS, with SK-MEL-28 melanoma, in the test with NCI-H23 lung and in the test with U251 CNS was more than 100 µM throughout. Besides, the TGI in the test on HT29 colon, in the test on HOP-92 NSCLC, with UO-31 renal, in the test on SN12C renal, with T-47D breast and with NCI-H460 lung was more than 100 µM throughout. Moreover, the TGI in the test with HL-60(TB) leukemia was 76.3 µM; with ACHN renal, more than 100 µM; with NCI-H522 lung, 57.2 µM; in the test with CCRF-CEM leukemia it was more than 100 µM; with IGROV1 ovarian it was more than 100 µM; in the test on RXF 393 renal, 83 µM. The same compound registered a TGI in the test with UACC-257 melanoma of more than 100 µM.

With `C[C@]12CC[C@@H]3c4ccc(OC(=O)c5ccccc5)cc4CC[C@H]3[C@@H]1CCC2OC(=O)c1cccc2c(=O)c3ccccc3[nH]c12` (stereo partly drawn), the TGI with SF-295 CNS was found to be 37.5 µM; in the test on OVCAR-5 ovarian, 46.1 µM; in the test on SF-539 CNS it was 35.6 µM; in the test with SK-MEL-28 melanoma it was 30.6 µM; with NCI-H23 lung it was 48.3 µM; in the test on U251 CNS, 29.9 µM. Further, the TGI was determined as 20.7 µM in the test with HT29 colon; 34.9 µM with HOP-92 NSCLC; 68.6 µM in the test on UO-31 renal; 30.1 µM in the test with SN12C renal; 60.2 µM in the test with T-47D breast; 32.2 µM in the test on NCI-H460 lung. The TGI in the test on HL-60(TB) leukemia was more than 100 µM; in the test on ACHN renal, 46.8 µM; in the test on NCI-H522 lung it was 45.2 µM; in the test with CCRF-CEM leukemia it was more than 100 µM; with IGROV1 ovarian, 33.3 µM; in the test with RXF 393 renal it was 44.6 µM. Besides, the TGI with UACC-257 melanoma amounted to 36.3 µM.

On to `C1COC2SC3=C(SC(=C4SC5=C(SCCS5)S4)S3)SC2O1` (stereo not drawn), for which the TGI in the test with SF-295 CNS, with OVCAR-5 ovarian, in the test with SF-539 CNS, in the test with SK-MEL-28 melanoma, in the test on NCI-H23 lung and in the test with U251 CNS was more than 100 µM each time. Further, the TGI in the test on HT29 colon, in the test on HOP-92 NSCLC, with UO-31 renal, with SN12C renal, with T-47D breast and in the test on NCI-H460 lung was more than 100 µM throughout. The TGI in the test with HL-60(TB) leukemia, with ACHN renal, in the test with NCI-H522 lung, in the test on CCRF-CEM leukemia, in the test on IGROV1 ovarian and with RXF 393 renal was more than 100 µM each time. For the same compound, the TGI with UACC-257 melanoma is more than 100 µM.

For `CCOC(=O)/C(C#N)=C(/NS(=O)(=O)c1cc(C)c(Cl)cc1[S-])[n+]1ccc(N(C)C)cc1`, the TGI in the test on SF-295 CNS, in the test on OVCAR-5 ovarian, in the test on SF-539 CNS, in the test with SK-MEL-28 melanoma, in the test on NCI-H23 lung and in the test with U251 CNS was more than 100 µM in each case. The TGI in the test on HT29 colon was more than 100 µM; with HOP-92 NSCLC, 91.7 µM; with UO-31 renal it was more than 100 µM; in the test with SN12C renal it was more than 100 µM; in the test with T-47D breast it was more than 100 µM; in the test with NCI-H460 lung, more than 100 µM. Further, the TGI in the test with HL-60(TB) leukemia, with ACHN renal, with NCI-H522 lung, in the test on CCRF-CEM leukemia, in the test with IGROV1 ovarian and in the test on RXF 393 renal was more than 100 µM in each case. Moreover, in the test with UACC-257 melanoma, the TGI is more than 100 µM.
